Values after ≈ are worked out from the molar mass of the structure shown. Active and inactive are the calls of the source. The calls are words filed in the database; no cut-off is given here.
Key:
[1] = test system: Salmonella typhimurium; assay: Antibacterial activity against Salmonella typhi ATCC 6539 assessed as reduction in bacterial growth incubated for 1 day by paper disk diffusion method; format: functional, Salmonella enterica subsp. enterica serovar Typhimurium; details: Salmonella enterica, ATCC 6539, 24 h
[2] = test system: Staphylococcus aureus; assay: Bactericidal activity against Staphylococcus aureus ATCC 29213 incubated for 24 hrs followed by transferring to freshly prepared broth medium and measured after 24 hrs by broth microdilution assay; format: functional; details: time 48 hrs
[3] = test system: Aspergillus brasiliensis; assay: Antifungal activity against Aspergillus brasiliensis ATCC 16404 assessed as reduction in bacterial growth incubated for 3 days by paper disk diffusion method; format: functional
[4] = test system: Aspergillus brasiliensis; assay: Antifungal activity against Aspergillus brasiliensis ATCC 16404 assessed as diameter of inhibition zone at 0.5 mg/ml incubated for 72 hrs by agar diffusion method; format: functional; details: for zone of inhibition at 500 µg/mL: read-out: DIZ
[5] = test system: Candida albicans; assay: Antifungal activity against Candida albicans ATCC 10231 assessed as diameter of inhibition zone at 0.5 mg/ml incubated for 24 hrs by agar diffusion method; format: functional; details: for zone of inhibition at 500 µg/mL: read-out: DIZ
[6] = test system: Staphylococcus aureus; assay: Antibacterial activity against Staphylococcus aureus ATCC 29213 assessed as reduction in bacterial growth incubated for 1 day by paper disk diffusion method; format: functional; details: ATCC 29213, 24 h
[7] = test system: Salmonella typhimurium; assay: Antibacterial activity against Salmonella typhi ATCC 6539 assessed as diameter of inhibition zone at 0.5 mg/ml incubated for 24 hrs by agar diffusion method; format: functional, Salmonella enterica subsp. enterica serovar Typhimurium; details: Salmonella enterica, read-out: DIZ
[8] = test system: Staphylococcus aureus; assay: Antibacterial activity against Staphylococcus aureus ATCC 29213 assessed as diameter of inhibition zone at 0.5 mg/ml incubated for 24 hrs by agar diffusion method; format: functional; details: read-out: DIZ
[9] = test system: Escherichia coli; assay: Antibacterial activity against Escherichia coli ATCC 25922 assessed as diameter of inhibition zone at 0.5 mg/ml incubated for 24 hrs by agar diffusion method; format: functional; details: read-out: DIZ
[10] = test system: Escherichia coli; assay: Bactericidal activity against Escherichia coli ATCC 25922 incubated for 24 hrs followed by transferring to freshly prepared broth medium and measured after 24 hrs by broth microdilution assay; format: functional; details: time 48 hrs
[11] = test system: Escherichia coli; assay: Antibacterial activity against Escherichia coli ATCC 25922 assessed as reduction in bacterial growth incubated for 1 day by paper disk diffusion method; format: functional; details: ATCC 25922, 24 h
[12] = test system: Enterococcus faecalis; assay: Bactericidal activity against Enterococcus faecalis ATCC 29212 incubated for 24 hrs followed by transferring to freshly prepared broth medium and measured after 24 hrs by broth microdilution assay; format: functional; details: time 48 hrs
[13] = test system: Enterococcus faecalis; assay: Antibacterial activity against Enterococcus faecalis ATCC 29212 assessed as diameter of inhibition zone at 0.5 mg/ml incubated for 24 hrs by agar diffusion method; format: functional; details: read-out: DIZ
[14] = test system: Enterococcus faecalis; assay: Antibacterial activity against Enterococcus faecalis ATCC 29212 assessed as reduction in bacterial growth incubated for 1 day by paper disk diffusion method; format: functional; details: ATCC 29212, 24 h
[15] = test system: Candida albicans; assay: Antifungal activity against Candida albicans ATCC 10231 assessed as reduction in bacterial growth incubated for 1 day by paper disk diffusion method; format: functional
[16] = test system: Salmonella typhimurium; assay: Bactericidal activity against Salmonella typhi ATCC 6539 incubated for 24 hrs followed by transferring to freshly prepared broth medium and measured after 24 hrs by broth microdilution assay; format: functional, Salmonella enterica subsp. enterica serovar […]; details: Salmonella enterica, time 48 hrs

SMILES	MIC [1] [mg/L]	MBC [2] [mg/L]	MIC ([3]; time 3.0 day)	diameter of the inhibition zone (DIZ) [4]	diameter of the inhibition zone (DIZ) [5]	MIC [6] [mg/L]	zone of inhibition at 500 µg/mL [7] [mm]	zone of inhibition at 500 µg/mL [8] [mm]	zone of inhibition at 500 µg/mL [9] [mm]	MBC [10] [mg/L]	MIC [11] [mg/L]	MBC [12] [mg/L]	zone of inhibition at 500 µg/mL [13] [mm]	MIC [14] [mg/L]	MIC [15]	MBC [16] [mg/L]	MIC ([3]; ATCC 16404, 72 h, time 3 day) [mg/L]	zone of inhibition at 500 µg/mL [4] [mm]	zone of inhibition at 500 µg/mL [5] [mm]	MIC ([15]; ATCC 10231, 24 h) [mg/L]
CN(C)[C@@H]1C(O)=C(C(N)=O)C(=O)[C@@]2(O)C(O)=C3C(=O)c4c(O)cccc4[C@@](C)(O)[C@H]3C[C@@H]12 [TETRACYCLINE]	62.5 (≈ 141 µM)	87.5 (≈ 197 µM)	inactive	inactive	inactive	62.5 (≈ 141 µM)	21	25	23	18.7 (≈ 42.2 µM)	15.6 (≈ 35.1 µM)	37.5 (≈ 84.4 µM)	22	62.5 (≈ 141 µM)	inactive	81.2 (≈ 183 µM)				
CCOC(=O)C1=C(N)OC(c2ccccc2)=C(C(C)=O)C12C(=O)Nc1ccc(S(=O)(=O)N3CCCCC3)cc12 (stereo not drawn)	88.3 (≈ 160 µM)					88.3 (≈ 160 µM)	15	18	20		17.8 (≈ 32.2 µM)		20	17.8 (≈ 32.2 µM)			125 (≈ 227 µM)	17	13	62.5 (≈ 113 µM)
N#CC(C#N)=C1C(=O)Nc2ccc(S(=O)(=O)N3CCCCC3)cc21	143 (≈ 417 µM)					133 (≈ 389 µM)	12	10	13		125 (≈ 365 µM)		17	62.5 (≈ 183 µM)			62.5 (≈ 183 µM)	16	16	125 (≈ 365 µM)
CCOC(=O)C1=C(C)OC(N)=C(C(=O)OCC)C12C(=O)Nc1ccc(S(=O)(=O)N3CCCCC3)cc12 (stereo not drawn)	88.3 (≈ 170 µM)					88.3 (≈ 170 µM)	13	13	12		71.1 (≈ 137 µM)		19	35.5 (≈ 68.4 µM)			133 (≈ 257 µM)	12	12	88.3 (≈ 170 µM)
CCOC(=O)C1=C(c2ccccc2)OC(N)=C(C#N)C12C(=O)Nc1ccc(S(=O)(=O)N3CCOCC3)cc12 (stereo not drawn)	133 (≈ 248 µM)					125 (≈ 233 µM)	11	13	14		88.3 (≈ 165 µM)		19	7.81 (≈ 14.6 µM)			125 (≈ 233 µM)	12	16	62.5 (≈ 116 µM)
CC(=O)C1=C(C)OC(N)=C(C#N)C12C(=O)Nc1ccc(S(=O)(=O)N3CCCCC3)cc12 (stereo not drawn)	88.8 (≈ 201 µM)					167 (≈ 376 µM)	15	8	15		62.5 (≈ 141 µM)		15	167 (≈ 376 µM)			125 (≈ 282 µM)	14	16	71.1 (≈ 161 µM)
CCOC(=O)C1=C(N)OC(c2ccccc2)=C(C(=O)OCC)C12C(=O)Nc1ccc(S(=O)(=O)N3CCOCC3)cc12 (stereo not drawn)	125 (≈ 214 µM)					88.3 (≈ 151 µM)	13	17	16		35.5 (≈ 60.9 µM)		20	31.2 (≈ 53.5 µM)			133 (≈ 228 µM)	9	14	88.3 (≈ 151 µM)
CCOC(=O)/C(C#N)=C1\C(=O)Nc2ccc(S(=O)(=O)N3CCCCC3)cc21	125 (≈ 321 µM)					167 (≈ 428 µM)	11	7	14		62.5 (≈ 160 µM)		15	133 (≈ 342 µM)			88.3 (≈ 227 µM)	15	16	125 (≈ 321 µM)
CCOC(=O)C1=C(C)OC(N)=C(C(=O)OCC)C12C(=O)Nc1ccc(S(=O)(=O)N3CCOCC3)cc12 (stereo not drawn)	142 (≈ 273 µM)					125 (≈ 240 µM)	10	14	18		31.2 (≈ 59.9 µM)		16	62.5 (≈ 120 µM)			133 (≈ 256 µM)	11	13	125 (≈ 240 µM)
CCOC(=O)C1=C(C)OC(N)=C(C#N)C12C(=O)Nc1ccc(S(=O)(=O)N3CCCCC3)cc12 (stereo not drawn)	125 (≈ 265 µM)					83.3 (≈ 176 µM)	13	17	17		35.5 (≈ 75.2 µM)		18	71.1 (≈ 150 µM)			143 (≈ 302 µM)	10	15	62.5 (≈ 132 µM)
CCOC(=O)C1=C(N)OC(C)=C(C(C)=O)C12C(=O)Nc1ccc(S(=O)(=O)N3CCCCC3)cc12 (stereo not drawn)	71.1 (≈ 145 µM)					125 (≈ 255 µM)	15	10	16		17.8 (≈ 36.3 µM)		20	31.2 (≈ 63.8 µM)			143 (≈ 292 µM)	10	13	71.1 (≈ 145 µM)
CCOC(=O)C1=C(C)OC(N)=C(C#N)C12C(=O)Nc1ccc(S(=O)(=O)N3CCOCC3)cc12 (stereo not drawn)	133 (≈ 281 µM)					133 (≈ 281 µM)	15	16	19		31.2 (≈ 65.9 µM)		14	88.3 (≈ 186 µM)			167 (≈ 351 µM)	10	18	88.3 (≈ 186 µM)
